Reference: patent US10364247B2, “Preparation and use of novel protein kinase inhibitors” (Ruijin Hospital Affiliated to Shanghai Jiao Tong University …, priority 2015, dated 2019)

Legend:
[1] = molecular target: FLT3 (Homo sapiens, UniProt P36888); assay: KINOMEscan competition binding
Method: KINOMEscan™ is based on a competition binding assay that quantitatively measures the ability of a compound to compete with an immobilized, active-site directed ligand (Fabian et al. (2005) Nat. Biotechnol. 23, 329; Karaman et al. (2008) Nat. Biotechnol. 26, 127). The compound was screened at 10 μM, and results for primary screen binding interactions are reported as ‘% Ctrl’, where lower numbers indicate stronger hits. The results for kinases targets with a % Ctrl less than 30 can be seen in Table 2.
FLT3 is a receptor tyrosine kinase; its activating mutations are found in 30% human acute myeloid leukemia (AML)^5.

[2] = test system: Wt-BaF3; assay: Parental Ba/F3 cell proliferation (CellTiter Glo); format: cell-based, murine; details: Mus musculus, parental BaF/3 cells, 48 hours
Outline: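 Untransformed murine Ba/F3 cells, kept on 15% WEHI conditioned medium as IL3 source, were seeded at 5000 cells/well with compound. Viability was read by luminescence using CellTiter Glo diluted 1:4 in PBS, with no-cell background and vehicle controls.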

Chain of FLT3 (P36888 27-993): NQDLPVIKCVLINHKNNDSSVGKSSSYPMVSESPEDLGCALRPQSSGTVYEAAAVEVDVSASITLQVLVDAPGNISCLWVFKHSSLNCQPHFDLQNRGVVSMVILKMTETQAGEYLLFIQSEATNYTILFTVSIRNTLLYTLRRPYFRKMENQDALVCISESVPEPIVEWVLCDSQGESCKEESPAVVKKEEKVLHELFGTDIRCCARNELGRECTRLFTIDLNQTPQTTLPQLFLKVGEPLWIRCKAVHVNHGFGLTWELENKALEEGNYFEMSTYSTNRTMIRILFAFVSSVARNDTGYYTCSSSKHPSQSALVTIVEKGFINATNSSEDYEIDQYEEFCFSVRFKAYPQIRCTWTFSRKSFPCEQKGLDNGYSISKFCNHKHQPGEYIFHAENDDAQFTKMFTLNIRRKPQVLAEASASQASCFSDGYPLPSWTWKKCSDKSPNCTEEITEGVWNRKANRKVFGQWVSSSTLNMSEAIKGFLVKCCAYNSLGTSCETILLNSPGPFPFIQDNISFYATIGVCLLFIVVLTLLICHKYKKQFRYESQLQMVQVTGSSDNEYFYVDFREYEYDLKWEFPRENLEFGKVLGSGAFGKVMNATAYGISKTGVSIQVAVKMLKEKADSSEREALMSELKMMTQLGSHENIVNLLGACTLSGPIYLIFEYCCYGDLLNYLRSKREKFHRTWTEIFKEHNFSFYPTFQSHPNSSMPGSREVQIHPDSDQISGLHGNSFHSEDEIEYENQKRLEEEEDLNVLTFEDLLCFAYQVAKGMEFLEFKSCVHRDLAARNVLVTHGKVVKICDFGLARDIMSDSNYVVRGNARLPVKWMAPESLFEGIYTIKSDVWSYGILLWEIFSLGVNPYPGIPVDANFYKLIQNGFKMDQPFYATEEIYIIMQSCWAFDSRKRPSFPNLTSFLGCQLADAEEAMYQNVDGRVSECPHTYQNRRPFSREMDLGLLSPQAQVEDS

SMILES: Cc1ccc(Nc2ncc3c(n2)N(C)CN(c2cc(NC(=O)c4cccc(C(F)(F)F)c4)ccc2C)C3)cn1 [IA-9, N-(4-methyl-3-(1-methyl-7-((6-methylpyridin-3-yl)amino)-1,4-dihydropyrimido[4,5-d]pyrimidin-3(2H)-yl)phenyl)-3-(trifluoromethyl)benzamide]
- remaining binding at 10 µM ([1]; FLT3, 10 μM, read-out: Percent Control): 0.2%
- binding to FLT3 kinase (in words) ([1]; KINOMEscan data): bind(s) FLT3 kinase strongly
- IC50 [2]: 5.38 µM
